Literature values in patent US6350369B1, “Method and system for determining analyte activity” (California Institute of Technology, priority 1998, dated 2002).

Test system: cytochrome P-450
Conditions: cytochrome P-450 aniline p-hydroxylation inhibition, in words

- inhibitory activity compared with QSAR prediction: higher activity than is predicted
SMILES: OCc1ccccc1 [benzyl alcohol]
